In brackets after ≈: the same amount, converted by molar mass.
How the values were obtained:
[1] = system: human Gram-negative isolates comprising 19 E. aerogenes, 20 E. coli, 19 E. cloacae, 20 K. pneumoniae and 16 K. oxytoca; parameters: method as in PMID 30318716; details: panel of human Gram-negative isolates; cited from earlier work
[2] = system: MDBK (normal Madin–Darby bovine kidney cell line); assay: In vitro cytotoxicity, WST-1; assay type: cell-based; details: Bos taurus, 24 h
Source text: (§1) Potential toxicity of NCL259 and NCL265 to mammalian cells relative to the parent compound (NCL812) was examined using Caco-2 (human colorectal adenocarcinoma cell line), HEL 299 (non-cancerous human lung fibroblast cell line), Hep G2 (human hepatocellular carcinoma cell line), MCF-7 (human mammary gland adenocarcinoma cell line), MDBK (normal Madin–Darby bovine kidney cell line) and Vero (normal adult African green monkey cell line), essentially as described previously. Toxicity to the cell lines was performed using serial two-fold dilutions of each compound from 128 to 1 μg/mL in duplicates in flat bottom 96 well tissue culture trays (Sarstedt 83.3924) containing approximately 2 × 10^4 cells per well in antibiotic-free Dulbecco’s Modified Eagle’s Medium (DMEM; Gibco Cat No: 12430; Thermo Fisher Scientific, Scoresby, VIC, Australia) consisting of 10% (v/v) fetal bovine serum at 37 °C, 5% CO2 for 24 h. Duplicate wells containing ampicillin at 128 to 1 μg/mL were used as controls. Thereafter, 10% (v/v) of the WST-1 cell proliferation assay reagent (Cat No: 05015944001; Roche Life Science, North Ryde, NSW, Australia) was added to each well, the trays were further incubated at 37 °C, 5% CO2 for 1 h and absorbance read at A450nm on a Multiskan Ascent 354 Spectrophotometer (Labsystems, Lilydale, VIC, Australia). The inhibitory concentration of each compound was determined as the half maximal inhibitory concentration (IC50) at A450nm.

[3] = system: Hep G2 (human hepatocellular carcinoma cell line); assay: In vitro cytotoxicity, WST-1; assay type: cell-based; details: HepG2, 24 h
Source text: as §1

[4] = system: HEL 299 (non-cancerous human lung fibroblast cell line); assay: In vitro cytotoxicity, WST-1; assay type: cell-based; details: HEL 299, 24 h
Source text: as §1

E. coli ATCC 25922 [5] = assay: Checkerboard assay with PMB; assay type: cell-based, Escherichia coli; details: for MIC, Combination: NCL259 or NCL265 with PMB; for Combination Effect / FICI: with PMB
Protocol: (§2) MICs of NCL259 or NCL265 in the presence of the efflux pump inhibitor, PAβN were determined using a checkerboard assay. […] Briefly, a two-fold serial dilution of each antimicrobial solution was prepared in its appropriate solvent (e.g., DMSO for robenidine analogues and Milli-Q water for PAβN), and 1 μL of each dilution was added from wells 12 to 3 (12.8–0.25 μg/mL for robenidine analogues, and 32–2 μg/mL for PAβN). Thereafter, 89 μL of LB broth was added to each well followed by the addition of 10 μL of bacterial suspension (1–5 × 10^6 CFU/mL) to each well. In this manner, the final concentration of DMSO in each well was 1%. The plate was subsequently incubated at 37 °C for 24 h. The resazurin assay was used for assessment of drug susceptibility of NCL259 and NCL265 (Supplementary Table S1–S6). The same method was also used to test the MICs of NCL259 or NCL265 in the presence of PMB against a range of Gram-negative reference strains (E. coli ATCC 25922, E. coli ATCC 10763, P. aeruginosa PAO1, P. aeruginosa ATCC 27853, A. baumannii ATCC 12457, A. baumannii ATCC 19606, K. pneumoniae ATCC 4352 and K. pneumoniae ATCC 33495). Stock solutions were prepared prior to use (25.6–0.25 mg/mL for robenidine analogues; 12.8–0.25 mg/mL for PMB). The interaction of two antibiotics was calculated as the fractional inhibitory concentration index (FICI) using the following formula:(1) FICI=MICA in combination/MICA alone+MICB in combination/MICB alone where A is NCL259 or NCL265 and B is PAβN or PMB. According to FICI calculations, the interaction between two compounds were interpreted as follows: synergistic (FICI ≤ 0.5); additive or partially synergistic (0.5 < FICI ≤ 1); indifferent (1 < FICI ≤ 4); and antagonistic (FICI > 4), as described previously. The dose reduction index (DRI) was used to describe the difference between the effective doses of NCL259 or NCL265 in combination with PMB or PAβN in comparison to their individual doses, using the following formula:(2) DRI=MICA alone/MICA in combination
(§3) Evaluation of DRI is important clinically because it can allow the dose of a potentially toxic drug to be lowered in combination with another compound without reducing the drug’s efficacy. A DRI higher than 1 is viewed as beneficial.

E. coli ATCC 10763 = assay: Checkerboard assay with PMB; assay type: cell-based, Escherichia coli; details: for MIC, Combination: NCL259 or NCL265 with PMB; for Combination Effect / FICI: with PMB
Protocol: as §2, §3

[6] = system: K. pneumoniae 13GNB–429, K. pneumoniae 13GNB–550 and K. oxytoca 13GNB–582; assay: MIC in presence of PAβN, three resistant Klebsiella isolates; assay type: cell-based; details: three resistant Klebsiella spp. isolates
Protocol: as §2

K. oxytoca 13GNB–582 = assay: Checkerboard assay with PAβN; assay type: cell-based; details: for concentration at the marked interaction: resazurin
Protocol: as §2, §3

E. coli ATCC 25922 [7] = details: cited from earlier work; for reduction in CFU (bactericidal): E. coli ATCC 25922, after 30 min treatment; for reduction of colony forming units: within 20 min at the MIC
[8] = first of two independent experiments
[9] = second of two independent experiments
[10] = K. oxytoca 13GNB–582, PAβN + NCL265
[11] = Table S6, NCL265 + PAβN, replicate 1
[12] = Table S6, NCL265 + PAβN, replicate 2
[13] = K. oxytoca 13GNB–582, PAβN + NCL259
[14] = Table S3, NCL259 + PAβN, replicate 1
[15] = Table S3, NCL259 + PAβN, replicate 2

Row | SMILES | MIC range [1] [µg/mL] | IC50 [2, 8] [µg/mL] | IC50 [2, 9] [µg/mL] | IC50 [3, 8] [µg/mL] | IC50 [3, 9] [µg/mL] | IC50 [4, 8] [µg/mL] | IC50 [4, 9] [µg/mL] | MIC, Combination (E. coli ATCC 25922 [5]) [µg/mL] | Combination Effect (E. coli ATCC 25922 [5]) | FICI (E. coli ATCC 25922 [5]) | MIC, Combination (E. coli ATCC 10763) [µg/mL] | Combination Effect (E. coli ATCC 10763) | FICI (E. coli ATCC 10763) | MIC in the presence of PAβN [6] [µg/mL] | reduction of MIC in the presence of PAβN [6] | reduction in CFU (bactericidal) (E. coli ATCC 25922 [7]) [log 10] | reduction of colony forming units (E. coli ATCC 25922 [7]) [%] | further results
1 | [H]/N=C(\N)NN=C(CCCCCC)c1ccc(Cl)cc1 [NCL265, (E)-2-(1-(4-chlorophenyl)heptylidene)hydrazine-1-carboximidamide] | 2 to 64 | 3 (≈ 10.7 µM) | 2 (≈ 7.12 µM) | < 1 | < 1 | < 2 | < 2 | 1 | Additivity (additive or partially synergistic, 0.5 < FICI ≤ 1) | 0.75 | 0.25 | Synergism (synergistic, FICI ≤ 0.5) | 0.254 | 2 to 4 | 64- to 128 fold | > 5 | 100 | Dose Reduction Index (DRI) PMB:NCL265 (E. coli ATCC 25922 [5]; PMB + NCL265): 4; Dose Reduction Index (DRI) PMB:NCL265 (E. coli ATCC 10763; PMB + NCL265): 256; DRI PAβN:NCL265 (K. oxytoca 13GNB–582; K. oxytoca 13GNB–582): 128; Combination Effect (K. oxytoca 13GNB–582; [10]): Additivity (additive or partially synergistic, 0.5 < FICI ≤ 1); FICI (K. oxytoca 13GNB–582; [10]): 0.508; MIC, Combination (K. oxytoca 13GNB–582; [10]): 2 µg/mL; interaction (K. oxytoca 13GNB–582; [11]): synergistic (synergistic (FICI ≤ 0.5)); interaction (K. oxytoca 13GNB–582; [12]): synergistic (synergistic (FICI ≤ 0.5)); concentration at the marked interaction (K. oxytoca 13GNB–582; [11]): 4 µg/mL; concentration at the marked interaction (K. oxytoca 13GNB–582; [12]): 8 µg/mL
2 | [H]/N=C(\N)NN=C(CC1CCCCC1)c1ccc(Cl)cc1 [NCL259, (E)-2-(1-(4-chlorophenyl)-2-cyclohexylethylidene)hydrazine-1-carboximidamide] | 2 to 64 | 2 (≈ 6.83 µM) | 2 (≈ 6.83 µM) | < 1 | < 1 | < 2 | < 2 | 1 | Additivity (additive or partially synergistic, 0.5 < FICI ≤ 1) | 0.563 | 0.25 | Additivity (additive or partially synergistic, 0.5 < FICI ≤ 1) | 0.504 | 8 to 16 | 16- to 32 fold | > 5 | 100 | Dose Reduction Index (DRI) PMB:NCL259 (E. coli ATCC 25922 [5]; PMB + NCL259): 16; Dose Reduction Index (DRI) PMB:NCL259 (E. coli ATCC 10763; PMB + NCL259): 256; DRI PAβN:NCL259 (K. oxytoca 13GNB–582; K. oxytoca 13GNB–582): 32; Combination Effect (K. oxytoca 13GNB–582; [13]): Synergism (synergistic, FICI ≤ 0.5); FICI (K. oxytoca 13GNB–582; [13]): 0.281; MIC, Combination (K. oxytoca 13GNB–582; [13]): 8 µg/mL; interaction (K. oxytoca 13GNB–582; [14]): synergistic (synergistic (FICI ≤ 0.5)); interaction (K. oxytoca 13GNB–582; [15]): synergistic (synergistic (FICI ≤ 0.5)); concentration at the marked interaction (K. oxytoca 13GNB–582; [14]): 8 µg/mL; concentration at the marked interaction (K. oxytoca 13GNB–582; [15]): 8 µg/mL

Reference: paper PMC9598656, “In Vitro Activity of Robenidine Analogues NCL259 and NCL265 against Gram-Negative Pathogens” (Antibiotics, 2022)
